# Test results as given in patent US11267859B2, “GM-CSF mimetics and methods of making and using same” (The Regents of the University of Colorado, a body corporate, priority 2017, dated 2022).
# Columns and labels:
# [1] = molecular target: T1, human receptor (Homo sapiens, UniProt P15509+P32927); experiment: Activity for the human GM-CSF receptor
# T1 sequence (P15509 23-400): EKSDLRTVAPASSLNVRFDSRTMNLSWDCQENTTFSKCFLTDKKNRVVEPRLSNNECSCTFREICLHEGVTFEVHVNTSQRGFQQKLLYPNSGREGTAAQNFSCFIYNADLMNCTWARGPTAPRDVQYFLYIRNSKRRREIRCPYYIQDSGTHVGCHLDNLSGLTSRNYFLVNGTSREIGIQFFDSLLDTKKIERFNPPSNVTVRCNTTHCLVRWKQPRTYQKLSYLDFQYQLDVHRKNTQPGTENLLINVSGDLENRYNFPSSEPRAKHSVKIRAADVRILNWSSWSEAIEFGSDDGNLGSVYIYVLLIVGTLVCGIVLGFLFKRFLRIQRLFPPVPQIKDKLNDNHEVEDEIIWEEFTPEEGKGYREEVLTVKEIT
# T1 sequence (P32927 17-897): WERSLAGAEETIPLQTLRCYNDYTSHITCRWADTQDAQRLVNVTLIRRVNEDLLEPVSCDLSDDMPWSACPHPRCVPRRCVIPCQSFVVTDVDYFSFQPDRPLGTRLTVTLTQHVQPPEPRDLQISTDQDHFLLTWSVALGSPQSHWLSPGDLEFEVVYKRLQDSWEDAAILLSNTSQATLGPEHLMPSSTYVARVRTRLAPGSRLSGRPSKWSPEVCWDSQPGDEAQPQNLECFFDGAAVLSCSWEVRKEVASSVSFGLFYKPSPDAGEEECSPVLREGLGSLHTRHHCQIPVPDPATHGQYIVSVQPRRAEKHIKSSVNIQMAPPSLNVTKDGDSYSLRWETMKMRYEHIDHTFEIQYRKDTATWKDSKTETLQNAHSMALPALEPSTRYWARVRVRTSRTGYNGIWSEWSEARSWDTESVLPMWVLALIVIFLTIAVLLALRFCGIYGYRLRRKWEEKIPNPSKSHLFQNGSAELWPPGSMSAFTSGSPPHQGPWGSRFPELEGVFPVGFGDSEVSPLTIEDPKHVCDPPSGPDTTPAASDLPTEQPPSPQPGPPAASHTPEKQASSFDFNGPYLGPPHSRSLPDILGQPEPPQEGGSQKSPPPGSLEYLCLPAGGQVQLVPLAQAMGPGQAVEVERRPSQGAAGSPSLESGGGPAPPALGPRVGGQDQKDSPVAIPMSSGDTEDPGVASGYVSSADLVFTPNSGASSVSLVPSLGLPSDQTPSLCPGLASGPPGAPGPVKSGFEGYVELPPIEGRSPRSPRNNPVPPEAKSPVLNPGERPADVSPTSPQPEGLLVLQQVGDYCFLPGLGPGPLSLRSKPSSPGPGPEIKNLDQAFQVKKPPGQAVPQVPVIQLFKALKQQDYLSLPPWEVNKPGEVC
# [2] = molecular target: T2, mouse receptor (Mus musculus, UniProt P26955+Q00941); experiment: Activity for the mouse GM-CSF receptor
# T2 sequence (Q00941 30-388): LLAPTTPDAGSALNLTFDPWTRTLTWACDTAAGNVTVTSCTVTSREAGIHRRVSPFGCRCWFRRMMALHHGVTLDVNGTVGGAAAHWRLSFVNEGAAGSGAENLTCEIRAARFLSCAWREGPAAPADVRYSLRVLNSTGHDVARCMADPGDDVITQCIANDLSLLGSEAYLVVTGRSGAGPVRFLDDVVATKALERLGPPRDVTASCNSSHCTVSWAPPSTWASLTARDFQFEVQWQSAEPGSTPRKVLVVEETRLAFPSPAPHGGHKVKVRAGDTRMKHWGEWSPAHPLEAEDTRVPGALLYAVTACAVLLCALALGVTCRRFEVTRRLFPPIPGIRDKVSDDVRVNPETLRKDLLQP
# T2 sequence (P26955 23-896): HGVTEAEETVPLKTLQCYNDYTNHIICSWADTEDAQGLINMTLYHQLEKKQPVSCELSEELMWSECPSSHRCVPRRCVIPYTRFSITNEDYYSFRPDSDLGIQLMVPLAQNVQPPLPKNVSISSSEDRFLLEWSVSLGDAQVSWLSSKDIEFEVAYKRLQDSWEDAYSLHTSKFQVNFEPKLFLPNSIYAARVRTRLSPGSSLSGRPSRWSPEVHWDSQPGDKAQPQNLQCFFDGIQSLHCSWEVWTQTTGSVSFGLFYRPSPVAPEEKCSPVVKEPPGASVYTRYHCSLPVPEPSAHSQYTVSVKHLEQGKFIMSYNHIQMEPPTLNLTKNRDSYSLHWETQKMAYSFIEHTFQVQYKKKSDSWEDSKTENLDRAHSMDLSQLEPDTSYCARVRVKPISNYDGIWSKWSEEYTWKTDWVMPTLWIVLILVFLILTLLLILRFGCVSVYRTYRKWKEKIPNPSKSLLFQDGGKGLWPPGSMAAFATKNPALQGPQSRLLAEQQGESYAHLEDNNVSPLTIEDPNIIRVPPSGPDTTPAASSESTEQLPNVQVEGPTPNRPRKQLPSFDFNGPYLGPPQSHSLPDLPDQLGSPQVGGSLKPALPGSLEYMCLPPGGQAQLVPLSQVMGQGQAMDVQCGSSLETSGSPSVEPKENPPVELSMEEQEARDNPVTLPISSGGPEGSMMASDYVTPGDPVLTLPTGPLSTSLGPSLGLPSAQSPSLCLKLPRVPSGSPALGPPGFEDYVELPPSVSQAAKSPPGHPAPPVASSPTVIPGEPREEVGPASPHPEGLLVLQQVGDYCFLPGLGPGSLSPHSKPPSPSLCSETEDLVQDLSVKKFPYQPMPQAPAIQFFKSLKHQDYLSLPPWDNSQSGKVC
sequence,measurement,setting,value
QPWEHVNAIQEAR {PEG4} DFLLVIP {PEG4} QPWEHVNAIQEAR {PEG4} DFLLVIP [Mimetic M7],activity for the human receptor,[1],does not have activity
same,activity for the mouse receptor,[2],has activity
